Test results as given in ChEMBL document CHEMBL4507298 (2021).

What was measured:
[1] = biological target: 5-hydroxytryptamine receptor 7 (Homo sapiens) (UniProt P34969); experiment: 5-HT7 (h) CEREP ligand profiling; settings: Compound concentration 10.0 uM
[2] = biological target: Tyrosine-protein kinase ABL1 (Homo sapiens) (UniProt P00519); experiment: Abl kinase (h) CEREP ligand profiling; settings: Compound concentration 10.0 uM
[3] = biological target: High affinity choline transporter 1 (Homo sapiens) (UniProt Q9GZV3); experiment: Choline transporter (h) (CHT1) CEREP ligand profiling; settings: Compound concentration 10.0 uM
Histamine H4 receptor = Histamine H4 receptor (Homo sapiens, UniProt Q9H3N8); experiment: H4 (h) CEREP ligand profiling; settings: Compound concentration 10.0 uM
[4] = biological target: Matrix metalloproteinase-9 (Homo sapiens) (UniProt P14780); experiment: MMP-9 (h) CEREP ligand profiling; settings: Compound concentration 10.0 uM
[5] = biological target: Mu-type opioid receptor (Homo sapiens) (UniProt P35372); experiment: mu (h) (MOP) (agonist site) CEREP ligand profiling; settings: Compound concentration 10.0 uM
[6] = biological target: Sodium-dependent noradrenaline transporter (Homo sapiens) (UniProt P23975); experiment: NE transporter (h) CEREP ligand profiling; settings: Compound concentration 10.0 uM
[7] = biological target: Phosphodiesterase 4 (Homo sapiens) (UniProt P27815+Q08499+Q07343+Q08493); experiment: PDE4 (h) CEREP ligand profiling; assay type: protein assay; settings: Compound concentration 10.0 uM
[8] = biological target: Phosphodiesterase 4 (Rattus norvegicus) (UniProt P14270+P14646+P14644+P54748); experiment: Rolipram CEREP ligand profiling; assay type: protein assay; settings: Compound concentration 10.0 uM
[9] = biological target: Tyrosine-protein kinase ABL1 (Homo sapiens) (UniProt P00519); settings: Compound concentration 1000.0 nM
[10] = biological target: 5'-AMP-activated protein kinase catalytic subunit alpha-2 (Homo sapiens) (UniProt P54646); settings: Compound concentration 1000.0 nM
[11] = biological target: Ankyrin repeat and protein kinase domain-containing protein 1 (Homo sapiens) (UniProt Q8NFD2); settings: Compound concentration 1000.0 nM
[12] = biological target: Protein-tyrosine kinase 6 (Homo sapiens) (UniProt Q13882); settings: Compound concentration 1000.0 nM
[13] = biological target: Serine/threonine-protein kinase BRSK1 (Homo sapiens) (UniProt Q8TDC3); settings: Compound concentration 1000.0 nM
[14] = biological target: Calcium/calmodulin-dependent protein kinase kinase 1 (Homo sapiens) (UniProt Q8N5S9); settings: Compound concentration 1000.0 nM
[15] = biological target: Cyclin-dependent kinase 8 (Homo sapiens) (UniProt P49336); settings: Compound concentration 1000.0 nM
[16] = biological target: Serine/threonine-protein kinase Chk2 (Homo sapiens) (UniProt O96017); settings: Compound concentration 1000.0 nM
[17] = biological target: Dual specificity protein kinase CLK3 (Homo sapiens) (UniProt P49761); settings: Compound concentration 1000.0 nM
[18] = biological target: Casein kinase I isoform epsilon (Homo sapiens) (UniProt P49674); settings: Compound concentration 1000.0 nM
[19] = biological target: Casein kinase I isoform gamma-1 (Homo sapiens) (UniProt Q9HCP0); settings: Compound concentration 1000.0 nM
[20] = biological target: Mitogen-activated protein kinase kinase kinase 12 (Homo sapiens) (UniProt Q12852); settings: Compound concentration 1000.0 nM
[21] = biological target: Serine/threonine-protein kinase MRCK gamma (Homo sapiens) (UniProt Q6DT37); settings: Compound concentration 1000.0 nM
[22] = biological target: Dual specificity tyrosine-phosphorylation-regulated kinase 2 (Homo sapiens) (UniProt Q92630); settings: Compound concentration 1000.0 nM
[23] = biological target: Ephrin type-B receptor 3 (Homo sapiens) (UniProt P54753); settings: Compound concentration 1000.0 nM
[24] = biological target: Serine/threonine-protein kinase ICK (Homo sapiens) (UniProt Q9UPZ9); settings: Compound concentration 1000.0 nM
[25] = biological target: Serine/threonine-protein kinase LATS1 (Homo sapiens) (UniProt O95835); settings: Compound concentration 1000.0 nM
[26] = biological target: Serine/threonine-protein kinase LATS2 (Homo sapiens) (UniProt Q9NRM7); settings: Compound concentration 1000.0 nM
[27] = biological target: Mitogen-activated protein kinase kinase kinase 15 (Homo sapiens) (UniProt Q6ZN16); settings: Compound concentration 1000.0 nM
[28] = biological target: Mitogen-activated protein kinase kinase kinase 3 (Homo sapiens) (UniProt Q99759); settings: Compound concentration 1000.0 nM
[29] = biological target: MAP kinase-activated protein kinase 5 (Homo sapiens) (UniProt Q8IW41); settings: Compound concentration 1000.0 nM
[30] = biological target: MAP/microtubule affinity-regulating kinase 3 (Homo sapiens) (UniProt P27448); settings: Compound concentration 1000.0 nM
[31] = biological target: Myosin light chain kinase, smooth muscle (Homo sapiens) (UniProt Q15746); settings: Compound concentration 1000.0 nM
[32] = biological target: Myosin-IIIb (Homo sapiens) (UniProt Q8WXR4); settings: Compound concentration 1000.0 nM
[33] = biological target: Serine/threonine-protein kinase PAK 2 (Homo sapiens) (UniProt Q13177); settings: Compound concentration 1000.0 nM
[34] = system: Proto-oncogene tyrosine-protein kinase receptor Ret (Homo sapiens), P07949 [V804L]; settings: Compound concentration 1000.0 nM
[35] = biological target: Ribosomal protein S6 kinase alpha-6 (Homo sapiens) (UniProt Q9UK32); settings: Compound concentration 1000.0 nM
[36] = biological target: Ribosomal protein S6 kinase alpha-6 (Homo sapiens) (UniProt Q9UK32); settings: Compound concentration 1000.0 nM; remark: listed apart in the source
[37] = biological target: SRSF protein kinase 1 (Homo sapiens) (UniProt Q96SB4); settings: Compound concentration 1000.0 nM
[38] = biological target: Tyrosine-protein kinase SYK (Homo sapiens) (UniProt P43405); settings: Compound concentration 1000.0 nM
[39] = biological target: Mitogen-activated protein kinase kinase kinase 7 (Homo sapiens) (UniProt O43318); settings: Compound concentration 1000.0 nM
[40] = biological target: NT-3 growth factor receptor (Homo sapiens) (UniProt Q16288); settings: Compound concentration 1000.0 nM
[41] = biological target: Serine/threonine-protein kinase ULK2 (Homo sapiens) (UniProt Q8IYT8); settings: Compound concentration 1000.0 nM
[42] = biological target: Serine/threonine-protein kinase WNK2 (Homo sapiens) (UniProt Q9Y3S1); settings: Compound concentration 1000.0 nM
[43] = biological target: Mitogen-activated protein kinase kinase kinase 19 (Homo sapiens) (UniProt Q56UN5); settings: Compound concentration 1000.0 nM
[44] = biological target: Tyrosine-protein kinase ZAP-70 (Homo sapiens) (UniProt P43403); settings: Compound concentration 1000.0 nM

Chain of Tyrosine-protein kinase ABL1 (Homo sapiens) (P00519 whole entry): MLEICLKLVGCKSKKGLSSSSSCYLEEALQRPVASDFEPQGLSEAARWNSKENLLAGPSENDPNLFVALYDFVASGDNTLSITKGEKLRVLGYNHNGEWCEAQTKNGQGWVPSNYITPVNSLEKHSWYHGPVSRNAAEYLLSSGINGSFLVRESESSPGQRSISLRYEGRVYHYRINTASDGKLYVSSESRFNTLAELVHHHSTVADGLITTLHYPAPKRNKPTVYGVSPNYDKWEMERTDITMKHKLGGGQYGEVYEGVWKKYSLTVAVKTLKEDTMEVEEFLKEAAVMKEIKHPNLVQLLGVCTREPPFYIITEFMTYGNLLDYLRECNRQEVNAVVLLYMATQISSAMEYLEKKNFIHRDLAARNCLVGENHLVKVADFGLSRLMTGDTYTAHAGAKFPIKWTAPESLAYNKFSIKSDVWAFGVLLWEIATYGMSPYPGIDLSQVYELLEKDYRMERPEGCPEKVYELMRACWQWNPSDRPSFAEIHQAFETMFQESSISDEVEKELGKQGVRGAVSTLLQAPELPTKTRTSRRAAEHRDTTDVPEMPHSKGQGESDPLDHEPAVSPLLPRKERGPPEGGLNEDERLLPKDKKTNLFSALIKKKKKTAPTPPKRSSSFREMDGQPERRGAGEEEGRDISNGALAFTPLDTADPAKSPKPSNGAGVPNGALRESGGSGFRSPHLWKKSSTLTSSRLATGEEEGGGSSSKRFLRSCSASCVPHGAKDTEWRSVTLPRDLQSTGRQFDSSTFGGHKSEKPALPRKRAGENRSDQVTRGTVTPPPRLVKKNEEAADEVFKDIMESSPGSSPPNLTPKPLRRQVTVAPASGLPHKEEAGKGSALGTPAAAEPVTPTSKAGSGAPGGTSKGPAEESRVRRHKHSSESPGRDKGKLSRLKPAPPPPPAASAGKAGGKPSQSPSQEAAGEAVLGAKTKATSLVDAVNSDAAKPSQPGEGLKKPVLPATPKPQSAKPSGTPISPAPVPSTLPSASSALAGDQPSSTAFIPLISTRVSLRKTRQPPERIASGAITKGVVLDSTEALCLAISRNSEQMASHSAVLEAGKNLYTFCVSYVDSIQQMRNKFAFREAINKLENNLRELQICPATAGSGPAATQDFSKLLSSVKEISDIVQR
Chain of Ribosomal protein S6 kinase alpha-6 (Homo sapiens) (Q9UK32 whole entry): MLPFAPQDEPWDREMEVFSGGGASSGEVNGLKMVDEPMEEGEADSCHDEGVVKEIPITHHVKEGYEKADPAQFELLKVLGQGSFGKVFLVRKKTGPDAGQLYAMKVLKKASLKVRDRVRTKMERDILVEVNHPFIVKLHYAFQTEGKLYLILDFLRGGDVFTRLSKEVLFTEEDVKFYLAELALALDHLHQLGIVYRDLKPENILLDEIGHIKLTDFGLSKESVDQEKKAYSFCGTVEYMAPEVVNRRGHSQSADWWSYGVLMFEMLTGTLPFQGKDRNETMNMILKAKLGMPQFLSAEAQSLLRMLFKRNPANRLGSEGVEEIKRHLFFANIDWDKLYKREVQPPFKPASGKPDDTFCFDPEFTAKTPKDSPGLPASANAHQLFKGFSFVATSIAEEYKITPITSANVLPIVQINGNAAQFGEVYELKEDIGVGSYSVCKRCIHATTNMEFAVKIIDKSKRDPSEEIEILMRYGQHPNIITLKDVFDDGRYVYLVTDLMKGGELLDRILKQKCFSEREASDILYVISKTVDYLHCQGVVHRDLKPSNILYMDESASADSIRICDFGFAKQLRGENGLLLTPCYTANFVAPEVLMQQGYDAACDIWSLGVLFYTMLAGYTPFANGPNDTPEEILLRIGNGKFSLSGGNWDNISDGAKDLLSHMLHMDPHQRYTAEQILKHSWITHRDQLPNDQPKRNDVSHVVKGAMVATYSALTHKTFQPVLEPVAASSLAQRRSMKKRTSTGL
Chain of Serine/threonine-protein kinase WNK2 (Homo sapiens) (Q9Y3S1 whole entry): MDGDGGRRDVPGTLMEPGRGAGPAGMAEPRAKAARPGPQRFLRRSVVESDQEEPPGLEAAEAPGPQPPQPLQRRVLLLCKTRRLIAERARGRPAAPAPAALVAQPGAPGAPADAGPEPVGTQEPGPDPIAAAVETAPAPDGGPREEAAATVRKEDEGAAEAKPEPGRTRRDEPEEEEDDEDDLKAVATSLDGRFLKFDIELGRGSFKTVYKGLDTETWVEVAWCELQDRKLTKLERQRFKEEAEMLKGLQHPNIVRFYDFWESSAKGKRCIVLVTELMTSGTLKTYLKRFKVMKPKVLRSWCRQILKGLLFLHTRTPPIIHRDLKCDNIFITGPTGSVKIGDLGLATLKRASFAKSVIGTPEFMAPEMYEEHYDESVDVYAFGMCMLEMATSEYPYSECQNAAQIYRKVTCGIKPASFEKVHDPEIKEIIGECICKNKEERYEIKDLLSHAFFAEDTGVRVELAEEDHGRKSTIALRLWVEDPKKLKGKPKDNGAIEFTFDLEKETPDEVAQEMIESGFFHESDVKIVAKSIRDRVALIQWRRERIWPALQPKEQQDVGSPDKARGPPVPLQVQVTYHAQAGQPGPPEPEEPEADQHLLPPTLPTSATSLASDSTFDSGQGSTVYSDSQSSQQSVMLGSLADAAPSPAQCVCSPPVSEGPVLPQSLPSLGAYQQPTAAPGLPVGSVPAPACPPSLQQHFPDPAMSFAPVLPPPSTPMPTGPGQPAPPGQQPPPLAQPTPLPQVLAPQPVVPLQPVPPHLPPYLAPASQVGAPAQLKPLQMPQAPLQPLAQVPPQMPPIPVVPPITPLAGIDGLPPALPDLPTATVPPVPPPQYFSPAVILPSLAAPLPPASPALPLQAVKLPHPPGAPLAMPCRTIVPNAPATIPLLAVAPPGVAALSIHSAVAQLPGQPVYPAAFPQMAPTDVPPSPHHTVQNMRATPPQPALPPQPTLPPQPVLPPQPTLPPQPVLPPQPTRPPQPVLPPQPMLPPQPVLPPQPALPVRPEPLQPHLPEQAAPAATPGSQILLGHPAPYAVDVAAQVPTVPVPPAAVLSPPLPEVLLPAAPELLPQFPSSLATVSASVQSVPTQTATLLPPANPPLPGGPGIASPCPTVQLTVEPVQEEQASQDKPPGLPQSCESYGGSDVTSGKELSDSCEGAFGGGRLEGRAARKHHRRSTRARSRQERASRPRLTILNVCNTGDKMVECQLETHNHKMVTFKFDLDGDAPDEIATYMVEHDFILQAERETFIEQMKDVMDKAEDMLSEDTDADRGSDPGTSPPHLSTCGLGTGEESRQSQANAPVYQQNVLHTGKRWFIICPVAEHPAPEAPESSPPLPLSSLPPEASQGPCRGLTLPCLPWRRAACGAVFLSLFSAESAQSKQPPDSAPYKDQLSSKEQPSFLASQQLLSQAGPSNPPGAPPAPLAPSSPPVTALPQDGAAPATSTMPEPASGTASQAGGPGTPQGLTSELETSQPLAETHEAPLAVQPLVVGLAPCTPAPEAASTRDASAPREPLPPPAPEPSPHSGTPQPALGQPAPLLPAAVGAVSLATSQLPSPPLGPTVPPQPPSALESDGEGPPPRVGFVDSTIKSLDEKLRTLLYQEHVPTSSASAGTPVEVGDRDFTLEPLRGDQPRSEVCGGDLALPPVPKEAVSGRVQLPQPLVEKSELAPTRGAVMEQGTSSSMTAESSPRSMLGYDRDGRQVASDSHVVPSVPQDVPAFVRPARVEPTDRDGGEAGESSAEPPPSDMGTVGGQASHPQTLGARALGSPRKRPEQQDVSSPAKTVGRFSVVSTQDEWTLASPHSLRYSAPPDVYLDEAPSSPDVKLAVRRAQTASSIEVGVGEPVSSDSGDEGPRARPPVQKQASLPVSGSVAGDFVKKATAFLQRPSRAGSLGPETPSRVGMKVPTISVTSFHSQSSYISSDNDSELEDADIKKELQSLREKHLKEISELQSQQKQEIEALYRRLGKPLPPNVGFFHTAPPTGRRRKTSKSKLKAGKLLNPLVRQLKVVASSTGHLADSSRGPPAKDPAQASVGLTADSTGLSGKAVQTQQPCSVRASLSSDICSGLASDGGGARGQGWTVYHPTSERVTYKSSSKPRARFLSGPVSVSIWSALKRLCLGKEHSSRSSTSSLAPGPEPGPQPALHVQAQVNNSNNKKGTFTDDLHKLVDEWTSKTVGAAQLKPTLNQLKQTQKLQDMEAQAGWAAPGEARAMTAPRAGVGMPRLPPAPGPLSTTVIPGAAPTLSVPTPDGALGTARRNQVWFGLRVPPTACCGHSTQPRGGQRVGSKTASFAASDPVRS
Chain of Calcium/calmodulin-dependent protein kinase kinase 1 (Homo sapiens) (Q8N5S9 whole entry, looked up): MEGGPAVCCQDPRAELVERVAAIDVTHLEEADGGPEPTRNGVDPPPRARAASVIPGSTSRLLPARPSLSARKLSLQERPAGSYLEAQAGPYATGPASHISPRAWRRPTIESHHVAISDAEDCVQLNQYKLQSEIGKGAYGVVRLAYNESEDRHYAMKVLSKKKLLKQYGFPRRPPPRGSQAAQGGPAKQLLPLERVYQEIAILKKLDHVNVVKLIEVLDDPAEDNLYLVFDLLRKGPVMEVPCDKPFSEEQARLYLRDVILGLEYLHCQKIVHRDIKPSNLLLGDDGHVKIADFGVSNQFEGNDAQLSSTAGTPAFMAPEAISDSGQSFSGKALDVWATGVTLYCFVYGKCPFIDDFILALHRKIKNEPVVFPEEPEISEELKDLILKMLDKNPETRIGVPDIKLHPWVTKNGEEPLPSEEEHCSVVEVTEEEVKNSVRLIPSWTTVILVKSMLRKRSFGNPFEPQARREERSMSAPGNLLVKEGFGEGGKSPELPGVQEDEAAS
Chain of Mu-type opioid receptor (Homo sapiens) (P35372 whole entry): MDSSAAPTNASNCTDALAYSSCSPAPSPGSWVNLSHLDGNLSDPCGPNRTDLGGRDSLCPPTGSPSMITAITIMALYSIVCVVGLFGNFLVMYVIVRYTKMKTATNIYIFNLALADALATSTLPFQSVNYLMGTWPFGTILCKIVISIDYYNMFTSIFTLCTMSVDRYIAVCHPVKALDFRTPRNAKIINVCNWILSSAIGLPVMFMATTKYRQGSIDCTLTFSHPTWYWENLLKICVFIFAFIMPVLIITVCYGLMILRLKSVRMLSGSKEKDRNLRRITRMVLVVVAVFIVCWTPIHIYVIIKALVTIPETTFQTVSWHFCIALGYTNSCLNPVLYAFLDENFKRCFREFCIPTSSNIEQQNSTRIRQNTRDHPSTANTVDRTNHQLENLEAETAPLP

COc1ccc2cc(OCC3(C(=O)O)CN(C(=O)c4ccc(F)cc4)C3)ccc2c1 [PF-04418948]
inhibition [1]: -2% | inhibition [2]: 9% | inhibition [3]: 4% | inhibition (Histamine H4 receptor): -4% | inhibition [4]: 10% | inhibition [5]: -7% | inhibition [6]: -2% | inhibition [7]: 8% | inhibition [8]: 3% | residual activity [9]: 78% | residual activity [10]: 28% | residual activity [11]: 86% | residual activity [12]: 99% | residual activity [13]: 85% | residual activity [14]: 91% | residual activity [15]: 94% | residual activity [16]: 93% | residual activity [17]: 99% | residual activity [18]: 94% | residual activity [19]: 94% | residual activity [20]: 97% | residual activity [21]: 91% | residual activity [22]: 84% | residual activity [23]: 99% | residual activity [24]: 78% | residual activity [25]: 87% | residual activity [26]: 90% | residual activity [27]: 94% | residual activity [28]: 97% | residual activity [29]: 76% | residual activity [30]: 94% | residual activity [31]: 84% | residual activity [32]: 71% | residual activity [33]: 83% | residual activity [34]: 78% | residual activity [35]: 77% | residual activity [36]: 78% | residual activity [37]: 72% | residual activity [38]: 64% | residual activity [39]: 96% | residual activity [40]: 98% | residual activity [41]: 89% | residual activity [42]: 84% | residual activity [43]: 82% | residual activity [44]: 99%
